Source: ChEMBL document CHEMBL1140283, “Novel, potent small-molecule inhibitors of the molecular chaperone Hsp90 discovered through structure-based design” (J Med Chem, 2005)

Legend:
[1] = molecular target: ATP-dependent molecular chaperone HSC82 (Saccharomyces cerevisiae S288c, UniProt P15108); assay: Inhibitory concentration against ATPase activity of Hsp90 of Saccharomyces cerevisiae was determined by ATPase activity assay
HCT-116 [2] = assay: Inhibitory concentration against cell proliferation of human HCT116 cell; type: functional
HCT-116 [3] = assay: Inhibitory concentration against cell proliferation of human HCT116 cells; type: functional
[4] = molecular target: Heat shock protein HSP 90-alpha (Homo sapiens, UniProt P07900); assay: Inhibitory concentration against activity of Hsp90 was determined by fluorescence polarization (FP) assay
[5] = Homo sapiens, HCT-116, read-out: GI50

Chain of ATP-dependent molecular chaperone HSC82 (P15108 whole entry): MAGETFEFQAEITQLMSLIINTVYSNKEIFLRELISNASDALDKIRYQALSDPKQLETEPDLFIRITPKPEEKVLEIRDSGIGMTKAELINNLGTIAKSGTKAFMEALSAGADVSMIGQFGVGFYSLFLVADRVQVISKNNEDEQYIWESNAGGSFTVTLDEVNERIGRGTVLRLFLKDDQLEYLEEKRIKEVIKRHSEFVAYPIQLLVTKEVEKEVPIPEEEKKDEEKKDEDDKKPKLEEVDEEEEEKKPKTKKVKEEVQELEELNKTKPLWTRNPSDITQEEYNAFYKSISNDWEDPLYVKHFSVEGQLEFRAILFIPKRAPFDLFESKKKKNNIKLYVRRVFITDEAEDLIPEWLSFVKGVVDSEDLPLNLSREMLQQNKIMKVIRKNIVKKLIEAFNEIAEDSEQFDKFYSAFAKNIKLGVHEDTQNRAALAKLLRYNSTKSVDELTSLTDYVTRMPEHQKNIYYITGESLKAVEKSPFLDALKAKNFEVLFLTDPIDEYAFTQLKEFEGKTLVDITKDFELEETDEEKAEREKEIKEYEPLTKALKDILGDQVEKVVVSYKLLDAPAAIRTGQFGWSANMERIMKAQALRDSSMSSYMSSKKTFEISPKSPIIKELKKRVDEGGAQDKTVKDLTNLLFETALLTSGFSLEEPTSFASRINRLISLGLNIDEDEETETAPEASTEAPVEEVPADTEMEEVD

SMILES	IC50 [1] [µM]	GI50 (HCT-116 [2]) [µM]	GI50 (HCT-116 [3]; [5]) [µM]	IC50 [4] [µM]	GI50 (HCT-116 [3]) [µM]
C=CCNC1=C2C[C@@H](C)C[C@H](OC)[C@H](O)[C@@H](C)/C=C(\C)[C@H](OC(N)=O)[C@@H](OC)/C=C\C=C(/C)C(=O)NC(=CC1=O)C2=O [TANESPIMYCIN]	13.4	0.16	–	–	–
COc1ccc(-c2c(-c3ccc(O)cc3O)n[nH]c2C)cc1	36.9	–	33.3	–	–
CCNC(=O)c1[nH]nc(-c2cc(Cl)c(O)cc2O)c1-c1ccc(OC)cc1	0.14	–	–	–	–
Cc1n[nH]c(-c2ccc(O)cc2O)c1-c1ccc2c(c1)OCCO2	23	–	34.8	4.73	–
COc1ccc(-c2c(C)n[nH]c2-c2cc(Br)c(O)cc2O)cc1	1.9	–	6.1	0.062	–
C[C@@H]1C[C@H]2O[C@@H]2/C=C\C=C\C(=O)Cc2c(Cl)c(O)cc(O)c2C(=O)O1 [RADICICOL]	0.2	0.13	–	–	–
COc1ccc(-c2c(-c3cc(Cl)c(O)cc3O)n[nH]c2C(=O)O)cc1	2.3	–	–	0.51	> 80
CCc1cc(-c2n[nH]c(C)c2-c2ccc3c(c2)OCCO3)c(O)cc1O	5.7	–	5.8	–	–
COc1ccc(-c2c(-c3cc(Cl)c(O)cc3O)n[nH]c2C(N)=O)cc1	0.42	–	1.1	0.053	–
CNC(=O)c1[nH]nc(-c2cc(Cl)c(O)cc2O)c1-c1ccc(OC)cc1	0.11	–	0.68	0.039	–
COc1ccc(-c2c(C)n[nH]c2-c2cc(Cl)c(O)cc2O)cc1	1.7	–	6.7	0.15	–
CCNC(=O)c1[nH]nc(-c2cc(Br)c(O)cc2O)c1-c1ccc(OC)cc1	0.39	–	0.938	–	–
Cc1[nH]nc(-c2cc(Cl)c(O)cc2O)c1-c1ccc2c(c1)OCCO2	0.65	–	14.9	–	–
COc1ccc(-c2c(-c3cc(Cl)c(O)cc3O)n[nH]c2C(=O)NC(C)C)cc1	1.5	–	1.9	0.12	–
